From patent US10828269B2, “Reducing muscle atrophy by administering astaxanthin” (FUJI CHEMICAL INDUSTRIES CO., LTD., priority 2004, dated 2020)

Tests used:
[1] = test system: C1q and tumor necrosis factor related protein 5; assay: GeneChip gene expression in renal glomerulus; assay type: in vivo, mouse; conditions: probe 1424762_at, 0.02% in diet, 12 weeks
Procedure: (§1) Type II diabetic female db/db mice and non-diabetic db/m were purchased from Clea Japan, Inc. Mice were bred under the conditions with a 12 hours light-dark cycle at a temperature of 21° C. to 25° C. For acclimation, mice were fed CE-2 (Clea Japan, Inc.) with free access to water for one week. The mice were divided into three groups each consisting of 8 mice (non-diabetic db/m, diabetic db/db, and astaxanthin-administered db/db) and each group was bred with feed ad libitum. Mice in astaxanthin-administered group were fed a diet in which 0.02% astaxanthin in terms of free astaxanthin was compounded with CE-2. Each group was bred for 12 weeks, and body weight, blood glucose levels, 8-OHdG levels in urine, albumin levels in urine, and kidney histopathology, were measured. Astaxanthin used here was AstaReal (registered trademark, Fuji Chemical Industry Co., Ltd.) 50F, which is oil composed of astaxanthin fatty acid ester and triglycerides and contains 5% astaxanthin in terms of free astaxanthin.
(§2) After the period of test breeding, kidney was removed and frozen at −80° C. Using an LM200 system (Olympus Corporation), the renal glomerulus was cut from kidney of mice while keeping low temperature. tRNA of renal glomerulus was extracted using tRNA extraction regent “Isogen” (produced by Nippon Gene Co., Ltd.), and then preparation of cRNA and hybridization were performed according to the Affymetrix GeneChip Eukaryotic Small Sample Target Labeling Assay Ver. II.
(§3) (1) Synthesis of first strand cDNA: 1 μL of total RNA solution and 1 of 5 μM T7-Oligo(dT) primer were mixed, heated at 70° C. for 6 minutes, and then cooled at 4° C. for 2 minutes. 3 μL of RT_Premix_1 (1.5 μL DEPC-treated water, 4 μL 5× First strand Buffer, 2 μL DTT (0.1 M), 1.5 μL dNTP Mix (10 mM), 1 μL RNase inhibitor (40 U/μL), and 2 μL Super-Script II (200 U/μL)) was added and reverse transcribed at 42° C. for 1 hour. The sample was heated at 70° C. for 10 minutes to inactivate Super Script II, and then cooled to 4° C. (2) Synthesis of second strand cDNA: 32.5 μl of SS_Premix_1 (91 μL DEPC-treated water, 30 μL 5× Second Strand Buffer, 3 μL dNTP (10 mM), 1 μL E. coli DNA ligase (10 U/μL); 4 μL E. coli DNA polymerase (10 U/μL), and 1 μL RNase H (2 U/μL)) was added to the first strand cDNA solution and allowed to react for 2 hours at 16° C. (3) To the resulting cDNA, was added 1 μL T4 DNA polymerase (5 U/μl) and allowed to react for 10 minutes at 16° C., and purified by ethanol precipitation. (4) In vitro transcription: To the dried double-stranded cDNA pellet, was added 10 μL of reagents (4 μL DEPC-treated water, 4 μL premixed NTPs, 1 μL 10× reaction buffer, and 1 μL 10× enzyme mix), and allowed to react at 37° C. in a water bath for 6 hours. (5) First cycle cRNA was purified using the RNeasy Mini Kit in accordance with the protocol in the handbook (QIAGEN). (6) Subsequently, for the amplification and labeling, the cRNA sample was mixed with random primers (0.2 μg/μL), treated at 70° C. for 10 minutes, cooled on ice for 2 minutes, 5 μL of RT_Premix_2 (5× First Strand Buffer, DTT (0.1 M), dNTP mix (10 mM), RNase inhibitor (40 U/μL), and SuperScript II (200 U/μL) was added, and allowed to react at 42° C. for 1 hour. (7) Next, Second Sstrand cDNA synthesis was carried out by adding 5 μM T7-Oligo(dT) promoter treating at 70° C. for 6 minutes, cooling at 4° C., and adding 62 μL of SS_Premix_2 (43 μL it DEPC-treated water, 15 μL 5× Second Strand Buffer, 1.5 μL dNTP mix (10 mM), and 2 μL E. coli DNA polymerase (10 U/μL)). (8) To the resulting cDNA, was treated added 1 μL of T4 DNA polymerase (5 U/μL), allowed to react at 16° C. for 10 minutes, and purified by ethanol precipitation. […]

fibrosin 1 = assay: GeneChip gene expression in renal glomerulus; assay type: in vivo, mouse; conditions: probe 1433816_at, 0.02% in diet, 12 weeks
Procedure: as §1, §2, §3

[2] = test system: procollagen, type IV, alpha 5; assay: GeneChip gene expression in renal glomerulus; assay type: in vivo, mouse; conditions: probe 1425476_at, 0.02% in diet, 12 weeks
Procedure: as §1, §2, §3

erythropoietin receptor = assay: GeneChip gene expression in renal glomerulus; assay type: in vivo, mouse; conditions: probe 1423344_at, 0.02% in diet, 12 weeks
Procedure: as §1, §2, §3

[3] = test system: matrix metalloproteinase 8; assay: GeneChip gene expression in renal glomerulus; assay type: in vivo, mouse; conditions: probe 1449366_at, 0.02% in diet, 12 weeks
Procedure: as §1, §2, §3

[4] = test system: transforming growth factor beta 1 induced transcript 4; assay: GeneChip gene expression in renal glomerulus; assay type: in vivo, mouse; conditions: 0.02% in diet, 12 weeks
Procedure: as §1, §2, §3

catenin beta = assay: GeneChip gene expression in renal glomerulus; assay type: in vivo, mouse; conditions: probe 1420811_a_at, 0.02% in diet, 12 weeks
Procedure: as §1, §2, §3

ring finger protein 128 = assay: GeneChip gene expression in renal glomerulus; assay type: in vivo, mouse; conditions: probe 1449036_at, 0.02% in diet, 12 weeks
Procedure: as §1, §2, §3

C1q related factor = assay: GeneChip gene expression in renal glomerulus; assay type: in vivo, mouse; conditions: probe 1422777_at, 0.02% in diet, 12 weeks
Procedure: as §1, §2, §3

[5] = test system: Blymphoma Mo-MLV insertion region 1; assay: GeneChip gene expression in renal glomerulus; assay type: in vivo, mouse; conditions: probe 1448733_at, 0.02% in diet, 12 weeks
Procedure: as §1, §2, §3

peroxiredoxin 1 = assay: GeneChip gene expression in renal glomerulus; assay type: in vivo, mouse; conditions: probe 1436691_x_at, 0.02% in diet, 12 weeks
Procedure: as §1, §2, §3

septin 7 = assay: GeneChip gene expression in renal glomerulus; assay type: in vivo, mouse; conditions: probe 1454610_at, 0.02% in diet, 12 weeks
Procedure: as §1, §2, §3

[6] = relative to β-carotene; cited from earlier work

CC1=C(/C=C/C(C)=C/C=C/C(C)=C/C=C/C=C(C)/C=C/C=C(C)/C=C/C2=C(C)C(=O)C(O)CC2(C)C)C(C)(C)CC(O)C1=O (stereo not drawn) [astaxanthin, 3,3′-dihydroxy-β,β-carotene-4,4′-dione]
gene expression intensity ratio db/db(Ax):db/db [1]: 2.00
gene expression intensity ratio db/db(Ax):db/m [1]: 1.23
gene expression relative ratio db/db(Ax):db/db (fibrosin 1): 0.31
gene expression relative ratio db/db(Ax):db/m (fibrosin 1): 8
gene expression intensity ratio db/db(Ax):db/db [2]: 0.50
gene expression intensity ratio db/db(Ax):db/m [2]: 2.00
gene expression relative ratio db/db(Ax):db/db (erythropoietin receptor): 2.30
gene expression relative ratio db/db(Ax):db/m (erythropoietin receptor): 0.71
gene expression intensity ratio db/db(Ax):db/db [3]: 2.00
gene expression intensity ratio db/db(Ax):db/m [3]: 0.62
gene expression relative ratio db/db(Ax):db/db ([4]; probe 1425742_a_at): 0.33
gene expression relative ratio db/db(Ax):db/m ([4]; probe 1425742_a_at): 1.41
gene expression relative ratio db/db(Ax):db/db ([4]; probe 1454971_x_at): 0.57
gene expression relative ratio db/db(Ax):db/m ([4]; probe 1454971_x_at): 3.25
gene expression relative ratio db/db(Ax):db/db (catenin beta): 0.38
gene expression relative ratio db/db(Ax):db/m (catenin beta): 12.13
gene expression relative ratio db/db(Ax):db/db (ring finger protein 128): 0.1
gene expression relative ratio db/db(Ax):db/m (ring finger protein 128): 1.62
gene expression intensity ratio db/db(Ax):db/db (C1q related factor): 1.32
gene expression intensity ratio db/db(Ax):db/m (C1q related factor): 0.71
gene expression relative ratio db/db(Ax):db/db [5]: 0.76
gene expression relative ratio db/db(Ax):db/m [5]: 8.00
gene expression relative ratio db/db(Ax):db/db (peroxiredoxin 1): 0.14
gene expression relative ratio db/db(Ax):db/m (peroxiredoxin 1): 9.19
gene expression relative ratio db/db(Ax):db/db (septin 7): 0.76
gene expression relative ratio db/db(Ax):db/m (septin 7): 36.76
antioxidant effect, times as strong as β-carotene [6]: about 40 times
